Data on 25 compounds can be found in patent publication US9394282B2, “Pyrazole carboxamides as Janus kinase inhibitors” (Merck Sharp & Dohme Corp., priority 2011, dated 2016).

In one assay the target is JAK1 (Homo sapiens (Human), UniProt P23458). The assay is described as follows: Jak biochemical HTRF assay, JAK1. The following applies: recombinant purified GST-tagged catalytic domain; HTRF format; [ATP] 31.8 μM. The text has this:
(§1) Jak Biochemical HTRF Assay Protocol
(§2) Subsequent reagent additions employed an Agilent Bravo.
Background: Time-resolved FRET reads energy transfer from a long-lived donor to a nearby acceptor.

The target in the next assay is JAK2 (Homo sapiens (Human), UniProt O60674). The experiment in a line: Jak biochemical HTRF assay, JAK2. The following applies: recombinant purified GST-tagged catalytic domain, HTRF format.
Source text: as §1, §2

Molecules are shown by their SMILES.

Sequence of JAK2 (O60674 849-1124): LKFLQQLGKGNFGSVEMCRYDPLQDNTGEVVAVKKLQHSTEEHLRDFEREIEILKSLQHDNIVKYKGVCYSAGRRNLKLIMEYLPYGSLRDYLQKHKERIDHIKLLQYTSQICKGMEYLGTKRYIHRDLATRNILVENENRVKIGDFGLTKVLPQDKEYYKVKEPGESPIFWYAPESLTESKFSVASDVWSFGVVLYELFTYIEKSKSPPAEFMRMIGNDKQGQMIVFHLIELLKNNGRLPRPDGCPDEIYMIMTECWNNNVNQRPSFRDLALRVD
Sequence of JAK1 (P23458 875-1153): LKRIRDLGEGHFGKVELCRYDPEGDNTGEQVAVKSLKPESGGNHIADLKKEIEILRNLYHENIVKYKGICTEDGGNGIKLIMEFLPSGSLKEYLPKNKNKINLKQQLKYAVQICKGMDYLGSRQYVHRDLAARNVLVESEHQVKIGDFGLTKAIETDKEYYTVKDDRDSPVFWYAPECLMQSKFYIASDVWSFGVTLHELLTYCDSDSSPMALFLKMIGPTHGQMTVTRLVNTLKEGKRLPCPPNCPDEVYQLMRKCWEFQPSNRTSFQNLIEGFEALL

In general, IC50 refers to the midpoint of a concentration-inhibition curve. As to `CC1(c2ccc(Nc3nn([C@H]4COCC[C@@H]4C#N)cc3C(N)=O)cc2)COC1` (single isomer, unassigned) [Example 9-24, 1-[(3R,4S or 3S,4R)-4-cyanotetrahydro-2H-pyran-3-yl]-3-{[4-(3-methyloxetan-3-yl)phenyl]amino}-1H-pyrazole-4-carboxamide], the figures for the IC50 at JAK1 and on JAK2 ([ATP] 8.5 μM) were 0.1 nM and 0.6 nM, respectively.
Regarding `COCCOC(=O)N1CC[C@H](n2cc(C(N)=O)c(Nc3ccc(F)cc3)n2)[C@H](C#N)C1` (racemic) [Example 5-54, 2-methoxyethyl (3R,4S and 3S,4R)-4-{4-carbamoyl-3-[(4-fluorophenyl)amino]-1H-pyrazol-1-yl}-3-cyanopiperidine-1-carboxylate], the IC50 was 529 nM at JAK1 and over 1500 nM on JAK2 ([ATP] 8.5 μM).
On the same counts, the results for `N#C[C@H]1CCOC[C@@H]1n1cc(C(N)=O)c(Nc2ccc(OC(F)(F)F)cc2)n1` (single isomer, unassigned) [Example 9-20, 1-[(3R,4S or 3S,4R)-4-cyanotetrahydro-2H-pyran-3-yl]-3-{[4-(trifluoromethoxy)phenyl]amino}-1H-pyrazole-4-carboxamide] are 7 nM and 52 nM.
In the case of `N#C[C@@H]1CCN(Cc2cccnn2)CC1n1cc(C(N)=O)c(Nc2ccc(F)cc2)n1` (mixture of isomers) [Example 6-1, 1-[(3S,4R and 3R,4S)-4-Cyano-1-(pyridazin-3-ylmethyl)piperidin-3-yl]-3-[(4-fluorophenyl)amino]-1H-pyrazole-4-carboxamide], the figures for the IC50 at JAK1 and at JAK2 ([ATP] 8.5 μM) were 6 nM and 77 nM, respectively.
Consider `C[C@H]1OCC[C@@H](C#N)[C@@H]1n1cc(C(N)=O)c(Nc2ccnc(F)c2)n1` (mixture of isomers) [Example 10-2, 1-((2S,3R,4S and 2R,3S,4R)-4-cyano-2-methyltetrahydro-2H-pyran-3-yl)-3-((2-fluoropyridin-4-yl)amino)-1H-pyrazole-4-carboxamide], for which the IC50 on JAK1 turned out to be 29 nM; at JAK2 ([ATP] […]), 206 nM.
In the case of `N#C[C@H]1CCOC[C@@H]1n1cc(C(N)=O)c(Nc2ccc(F)nc2)n1` (single isomer, unassigned) [Example 9-29, 1-[(3R,4S or 3S,4R)-4-cyanotetrahydro-2H-pyran-3-yl]-3-[(6-fluoropyridin-3-yl)amino]-1H-pyrazole-4-carboxamide], the IC50 at JAK1 came to 0.8 nM; on JAK2 ([ATP] 8.5 μM), 5 nM.
On the same counts, the results for `N#C[C@@H]1CN(C(=O)OCCc2ccccc2)CC[C@@H]1n1cc(C(N)=O)c(Nc2ccc(F)cc2)n1` (racemic) [Example 5-48, 2-phenylethyl (3R,4S and 3S,4R)-4-{4-carbamoyl-3-[(4-fluorophenyl)amino]-1H-pyrazol-1-yl}-3-cyanopiperidine-1-carboxylate] are 403 nM and over 1500 nM.
As for `N#C[C@@H]1CNCC[C@H]1n1cc(C(N)=O)c(Nc2ccc(F)cc2)n1` (racemic) [Example 3-2, 1-[(3R,4R and 3S,4S)-3-cyanopiperidin-4-yl]-3-[(4-fluorophenyl)amino]-1H-pyrazole-4-carboxamide], the 50% inhibitory concentration (IC50) on JAK1 was 7 nM; at JAK2 ([ATP] 8.5 μM), 81 nM.
Take `N#C[C@H]1CCNCC1n1cc(C(N)=O)c(Nc2ccc(F)cc2)n1` (mixture of isomers) [Example 3-1, 1-[(3R,4S and 3S,4R)-4-cyanopiperidin-3-yl]-3-[(4-fluorophenyl)amino]-1H-pyrazole-4-carboxamide]: the values for the half-inhibitory concentration (IC50) on JAK1 and on JAK2 ([ATP] 8.5 μM) were 13 nM and 125 nM, respectively.
Take `N#C[C@@H]1CCN(Cc2ncco2)C[C@H]1n1cc(C(N)=O)c(Nc2ccc(F)cc2)n1` (racemic) [Example 6-8, 1-[(3S,4R and 3R,4S)-4-cyano-1-(1,3-oxazol-2-ylmethyl)piperidin-3-yl]-3-[(4-fluorophenyl)amino]-1H-pyrazole-4-carboxamide]: the IC50 at JAK1 amounted to 2 nM; on JAK2 ([ATP] 8.5 μM), 22 nM.
Turning to `N#CCC1(COC(=O)N2CC[C@@H](C#N)C(n3cc(C(N)=O)c(Nc4ccc(F)cc4)n3)C2)CC1` (mixture of isomers) [Example 5-88, [1-(cyanomethyl)cyclopropyl]methyl (3S,4R and 3R,4S)-3-{4-carbamoyl-3-[(4-fluorophenyl)amino]-1H-pyrazol-1-yl}-4-cyanopiperidine-1-carboxylate], the half-maximal inhibitory concentration (IC50) at JAK1 turned out to be 0.7 nM; at JAK2 ([ATP] 8.5 μM), 15 nM.
As to `N#C[C@@H]1CN(C(=O)OCC(F)(F)CO)CC[C@@H]1n1cc(C(N)=O)c(Nc2ccc(F)cc2)n1` (racemic) [Example 5-67, 2,2-difluoro-3-hydroxypropyl (3R,4S and 3S,4R)-4-{4-carbamoyl-3-[(4-fluorophenyl)amino]-1H-pyrazol-1-yl}-3-cyanopiperidine-1-carboxylate], the IC50 on JAK1 is 69 nM; on JAK2 ([ATP] 8.5 μM), 1200 nM.
Consider `N#C[C@@H]1CCN(Cc2cnccn2)C[C@H]1n1cc(C(N)=O)c(Nc2ccc(F)cc2)n1` (racemic) [Example 6-2, 1-[(3S,4R and 3R,4S)-4-cyano-1-(pyrazin-2-ylmethyl)piperidin-3-yl]-3-[(4-fluorophenyl)amino]-1H-pyrazole-4-carboxamide], for which the IC50 amounted to 2 nM on JAK1 and 26 nM at JAK2 ([ATP] 8.5 μM).
Regarding `CC(OC(=O)N1CC[C@H](n2cc(C(N)=O)c(Nc3ccc(F)cc3)n2)[C@H](C#N)C1)C(F)(F)F` (mixture of isomers) [Example 5-43, 2,2,2-trifluoro-1-methylethyl (3R,4S and 3S,4R)-4-{4-carbamoyl-3-[(4-fluorophenyl)amino]-1H-pyrazol-1-yl}-3-cyanopiperidine-1-carboxylate], the figures for the IC50 on JAK1 and on JAK2 ([ATP] 8.5 μM) were 188 nM and over 1500 nM, respectively.
As for `CC1(c2ccc(Nc3nn([C@@H]4COCC[C@H]4C#N)cc3C(N)=O)cc2)COC1` (single isomer, unassigned) [Example 9-26, 1-[(3S,4R or 3R,4S)-4-cyanotetrahydro-2H-pyran-3-yl]-3-{[4-(3-methyloxetan-3-yl)phenyl]amino}1H-pyrazole-4-carboxamide], the concentration for half-maximal inhibition (IC50) on JAK1 stood at 6 nM; at JAK2 ([ATP] 8.5 μM) it was 21 nM.
For `Cc1cc(CN2CC[C@@H](n3cc(C(N)=O)c(Nc4ccc(F)cc4)n3)[C@H](C#N)C2)no1` (racemic) [Example 6-33, 1-{(3R,4R and 3S,4S)-3-cyano-1-[(5-methylisoxazol-3-yl)methyl]piperidin-4-yl}-3-[(4-fluorophenyl)amino]-1H-pyrazole-4-carboxamide] the same measures were 7 nM and 92 nM.
On the same counts, the results for `N#C[C@@H]1CN(C(=O)OCCc2ccccc2)CC[C@H]1n1cc(C(N)=O)c(Nc2ccc(F)cc2)n1` (racemic) [Example 5-36, 2-phenylethyl (3R,4R and 3S,4S)-4-{4-carbamoyl-3-[(4-fluorophenyl)amino]-1H-pyrazol-1-yl}-3-cyanopiperidine-1-carboxylate] are 86 nM and 823 nM.
On the same counts, the results for `N#C[C@@H]1CN(C(=O)OCCF)CC[C@@H]1n1cc(C(N)=O)c(Nc2ccc(F)cc2)n1` (racemic) [Example 5-58, 2-fluoroethyl (3R,4S and 3S,4R)-4-{4-carbamoyl-3-[(4-fluorophenyl)amino]-1H-pyrazol-1-yl}-3-cyanopiperidine-1-carboxylate] are 102 nM and 1120 nM.
With `C[C@@H]1C[C@H](C#N)[C@@H](n2cc(C(N)=O)c(Nc3ccnc(F)c3)n2)CO1` (mixture of isomers) [Example 10-1, 1-((3R,4S,6R and 3S,4R,6S)-4-Cyano-6-methyltetrahydro-2H-pyran-3-yl)-3-((2-fluoropyridin-4-yl)amino)-1H-pyrazole-4-carboxamide], the IC50 on JAK1 is 5 nM; at JAK2 ([ATP] […]), 25 nM.
For `C[C@@]1(C#N)CS(=O)(=O)C[C@@H]1n1cc(C(N)=O)c(Nc2ccc(F)cc2)n1` (single isomer, unassigned) [Example 14-1, 1-((3R,4R or 3S,4S)-4-Cyano-4-methyl-1,1-dioxidotetrahydrothiophen-3-yl)-3-((4-fluorophenyl)amino)-1H-pyrazole-4-carboxamide] the same measures were 2 nM and 18 nM.
Consider `N#C[C@@H]1CCN(Cc2cscn2)C[C@H]1n1cc(C(N)=O)c(Nc2ccc(F)cc2)n1` (racemic) [Example 6-6, 1-[(3S,4R and 3R,4S)-4-cyano-1-(1,3-thiazol-4-ylmethyl)piperidin-3-yl]-3-[(4-fluorophenyl)amino]-1H-pyrazole-4-carboxamide], for which the results for the IC50 at JAK1 and at JAK2 ([ATP] 8.5 μM) were 2 nM and 19 nM, respectively.
On the same counts, the results for `CC(OC(=O)N1CC[C@H](n2cc(C(N)=O)c(Nc3ccc(F)cc3)n2)[C@H](C#N)C1)C1CC1` (mixture of isomers) [Example 5-68, 1-cyclopropylethyl (3R,4S and 3S,4R)-4-{4-carbamoyl-3-[(4-fluorophenyl)amino]-1H-pyrazol-1-yl}-3-cyanopiperidine-1-carboxylate] are 434 nM and over 1500 nM.
For `N#C[C@@H]1CCN(C(=O)OCC(F)(F)CO)CC1n1cc(C(N)=O)c(Nc2ccc(F)cc2)n1` (mixture of isomers) [Example 5-74, 2,2-difluoro-3-hydroxypropyl (3S,4R and 3R,4S)-3-{4-carbamoyl-3-[(4-fluorophenyl)amino]-1H-pyrazol-1-yl}-4-cyanopiperidine-1-carboxylate], the figures for the IC50 on JAK1 and at JAK2 ([ATP] 8.5 μM) were 1 nM and 14 nM, respectively.
On the same counts, the results for `N#C[C@@H]1CN(Cc2cccnc2F)CC[C@H]1n1cc(C(N)=O)c(Nc2ccc(F)cc2)n1` (racemic) [Example 6-35, 1-{(3R,4R and 3S,4S)-3-cyano-1-[(2-fluoropyridin-3-yl)methyl]piperidin-4-yl}-3-[(4-fluorophenyl)amino]-1H-pyrazole-4-carboxamide] are 5 nM and 79 nM.
On the same counts, the results for `CC(C)COC(=O)N1CC[C@@H](C#N)C(n2cc(C(N)=O)c(Nc3ccc(F)cc3)n2)C1` (mixture of isomers) [Example 5-77, 2-methylpropyl (3S,4R and 3R,4S)-3-{4-carbamoyl-3-[(4-fluorophenyl)amino]-1H-pyrazol-1-yl}-4-cyanopiperidine-1-carboxylate] are 4 nM and 76 nM.
